Test results: patent publication US20230174562A1, “RADIO-AND CHEMO-PROTECTIVE COMPOUNDS” (TONIX PHARMACEUTICALS, INC., priority 2020, published 2023)

What was measured:
[1] = cited from earlier work
[2] = Hygroscopicity on 10 minute exposure to the atmosphere; type: physicochemical; settings: 10 minute exposure of a small amount to the atmosphere; diHCl salt
Description: In Reaction E: 48 ml of HCl in methanol, 6 eq. (1.25 M solution, Aldrich #17935) was added to a solution of compound V, 3.5 g, 0.010 moles dissolved in 10 ml dry methanol in a flask under argon and equipped for magnetic stirring and the reaction was stirred at room temperature for 24 hours. […] The solution was degassed by gently bubbling argon into the solution for 30 minutes. Concentration (rotary evaporator at ambient temperature) provided a crude oily residue which was triturated with hexane producing a white solid. The hexane was removed (via pipette suction) and replaced with dry THF (25 ml). After an additional 10 minutes of trituration, the THF was removed and replaced with dry hexane (25 ml). After an additional 10 minutes of trituration, the hexane was removed and the resulting white solid was dried in vacuo over P2O5 providing 1.95 grams of diHCl salt of PrC-210 (88%). […]
In Reaction P: Compound XVI, 2.2 grams, 0.0058 moles was placed in a round-bottom flask equipped for magnetic stirring followed by 15 mL anhydrous trifluoroacetic acid (CF3COOH, Aldrich #8.08260). The flask was fitted with a condenser and the solution was refluxed for 5 hours whereupon it was determined that the reaction was complete using TLC by observing the disappearance of starting material and the appearance of a highly polar product, which stained positive with ninhydrin. […]

[3] = system: mice exposed to whole body irradiation; test: Radiation LD50 in mice after whole body irradiation; type: in vivo; settings: oral gavage 60 minutes prior to whole body irradiation 2-12 Gy, 30 days
Description: The affect of the compounds according to the disclosure on the dose of radiation required to kill 50% of mice (LD50) is assessed.
Mice are assigned to three groups (Groups 1, 2 and 3). A control group, Group 1, is treated via oral gavage with vehicle (Lactated Ringer's and 5% dextrose, adjusted to pH 7.3 with sodium bicarbonate) 60 minutes prior to whole body irradiation (2 Gy). Group 2 is treated via oral gavage with PrC-210, as a positive control, dissolved in Lactated Ringer's at a dose of 200 mg/kg 60 minutes prior to whole body irradiaton (2 Gy). Group 3 is treated via oral gavage with compound 1 (PrC-210-PT) dissolved in Lactated Ringer's at a dose of 308 mg/kg 60 minutes prior to whole body irradiation (2 Gy). The mortality of the three groups is assessed for 30 days post irradiation.
The experiment is repeated using varying radiation doses of 4, 6, 8, 10 and 12 Gy. The LD50 for each group was determined.
The experiment is repeated to assess compounds 2-23 as radioprotectors.

mice = test: Phase 1 maximum tolerated dose (MTD) determination in mice; type: in vivo; settings: male mice; oral gavage; 1,000 mg/kg
Description: (§1) Male mice were randomized and assessed in two phases: 1) for maximum tolerated doses (MTDs) of PrC-210, DzCH2SH, and 2Pip-2PrSH to determine dose levels for the efficacy study and 2) to evaluate the efficacy of the compounds when administered 60±5 minutes prior to exposure to total body irradiation (TBI) at an LD100/30 dose (990 cGy) (Tables 1 and 2).
(§2) For Phase 1 or 2, sterile water (vehicle), PrC-210, DzCH2SH, and 2Pip2PrSH were administered at 10 mL/kg calculated based on the most recent body weight via oral gavage. Animals were not fasted prior to administration of the compounds or vehicle. Mice in Phase 1 were administered the dose on Day 1 and mice in Phase 2 were administered the dose 60±5 minutes prior to TBI on Day 0.
(§3) All surviving animals were observed once daily for clinical signs (e.g., unusually low or high activity, lethargy, shivering, appearance of fur, bloody and water stool, and other symptoms of moribundity) at 1-2 hours post-irradiation and/or post-dose and once daily on non-dosing days until Day 4 (Phase 1) or Day 30 (Phase 2).
In Phase 1 (Table 1), all animals were normal when observed and all body weights were within normal range. The dose level of 1000 mg/kg was selected for Phase 2.

[4] = system: mice exposed to radiation; test: Protection of mice from lethal radiation (8 Gy, LD100); type: in vivo; settings: oral gavage 15-90 minutes prior to 8 Gy (LD100), 60 days post irradiation
Description: The radioprotective efficacy of the thiols, prodrugs and double prodrugs according to this disclosure is assessed in mice. The compounds of the disclosure are administered via oral gavage to mice, and are compared to mice that have been administered 3-(methylamino)-2-(methylaminomethyl)propane-1-thiol (PrC-210), as well as to a control group or mice that are administered vehicle (i.e., containing no radioprotective additive).
More specifically, mice are assigned to three groups (Groups 1, 2 and 3). A control group, Group 1, is treated via oral gavage with vehicle (Lactated Ringer's and 5% dextrose, adjusted to pH 7.3 with sodium bicarbonate) 15-90 minutes prior to a dose of 8 Gy (LD100) radiation. Group 2 is treated via oral gavage with PrC-210, as a positive control, dissolved in Lactated Ringer's at a dose of 200 mg/kg 15-90 minutes prior to irradiation with 8 Gy (LD100). Group 3 is treated via oral gavage with compound 1 (PrC-210-PT) dissolved in Lactated Ringer's at a dose of 308 mg/kg 15-90 minutes prior to irradiation with 8 Gy (LD100). The mortality of the three groups is assessed for 60 days post irradiation. The experiment is repeated with doses of PrC-210 ranging from 200 mg/kg to 450 mg/kg. Molar equivalent dosages of the test compound (compound 1, Prc-210-PT) to PrC-210 are also assessed.
The experiment is repeated to assess the efficacy of compounds 2-23 as radioprotectors.

[5] = system: mice exposed to total body irradiation (TBI); test: Phase 2 efficacy: survival of mice dosed before total body irradiation (TBI) at LD100/30; type: in vivo; settings: for survival compared to vehicle (Group 13) by Chi-square test / survival compared to vehicle (Group 13) by Log-rank (Mantel-Cox) test / number of animals survived until scheduled sacrifice (Day 30) / number of mice moribund sacrificed / number of mice found dead: 1000 mg/kg oral gavage before TBI 9.9 Gy; for Survival: Day 30, 11 animals; for Survival / median survival time: male mice, 1000 mg/kg oral gavage 60±5 min before TBI 9.9 Gy (LD100/30); for body weight gain on Days 5 to 9: compared to the vehicle group (Group 13); for number of animals survived until scheduled sacrifice (Day 30) / number of mice moribund sacrificed / number of mice found dead: of 11 mice; for survival of animals through 30 days post exposure: treated prior to total body irradiation (LD100/30)
Description: as §1, §2
Irradiation was administered once to the whole body. TBI of mice were performed using a 6 MV LINAC photon source (TrueBeam STx source). Animals were irradiated at a dose rate of up to 80 cGy/min to the midline of the animals. The source irradiated animals to 50% of the dose from anterior-posterior direction and […] from the posterior-anterior direction. Dose measurements were performed with a PTW 31010 0.1 cc Semiflex Ion chamber.
as §3
In Phase 2 (Table 2), survival curves of mice treated with vehicle, PrC-210, DzCH2SH or 2Pip-PrSH prior to TBI with 9.9 Gy were measured (FIG. 1). […] Five mice were moribund sacrificed, and 6 mice were found dead. Survival in the Group 13 animals was 0% and median survival time was 8 days. In mice administered with PrC-210 before TBI (Group 14), 4 animals survived until scheduled sacrifice (Day 30) while 7 mice were moribund sacrificed. […] In mice administered with DzCH2SH before TBI (Group 15), 3 animals survived until scheduled sacrifice (Day 30) while 7 mice were moribund sacrificed, and one mouse was found dead. […] Five mice were moribund sacrificed and six mice were found dead. Survival in the Group 16 mice was 0% and median survival time was 10 days.

[6] = after 1000 mg/kg oral gavage and TBI 9.9 Gy
[7] = after 1000 mg/kg oral gavage and TBI 9.9 Gy, 11 per group

CNCC(CS)CNC [PrC-210, 3-(methylamino)-2-((methylamino)methyl)propane-1-thiol, reference compound]
radioprotective properties ([1]; administered topically and orally in preclinical studies): demonstrated radioprotective properties
side effects ([1]; compared with Amifostine): less side effects than Amifostine
hygroscopicity [2]: did not show any signs of hygroscopicity
radiation LD50 versus control group [3]: control group demonstrates a lower LD50 compared to the mice treated with
toxicity at the highest tested dose (mice): did not produce any toxicity
rate of survival versus control group [4]: control group demonstrates a reduced rate of survival compared to the mice treated with
survival compared to vehicle (Group 13) by Chi-square test [5]: statistically significantly higher
survival compared to vehicle (Group 13) by Log-rank (Mantel-Cox) test [5]: statistically significantly higher
Survival [5]: 36.4%
mean body weight on Day 9 versus Groups 13, 15 and 16 [5, 6]: higher
number of animals with eye discharge [5, 7]: one
number of animals with hypoactivity [5, 7]: 5
number of animals with swollen eye [5, 7]: one
number of mice with tremor [5, 7]: 4
body weight gain on Days 5 to 9 [5, 6]: significantly higher
median survival time [5]: 11 days
number of animals survived until scheduled sacrifice (Day 30) [5]: 4
number of mice moribund sacrificed [5]: 7
survival of animals through 30 days post exposure [5]: increased survival

SCC1CNCCNC1 [Compound 22, (1,4-diazepan-6-yl)methanethiol]
hygroscopicity [2]: did not show any signs of hygroscopicity
toxicity at the highest tested dose (mice): did not produce any toxicity
mortality rate at 8-days post-irradiation ([5]; 1000 mg/kg oral gavage before TBI): efficacious effects
survival compared to vehicle (Group 13) by Log-rank (Mantel-Cox) test [5]: statistically significantly higher
Survival [5]: 27.3%
number of animals with cold to touch skin [5, 7]: one
number of animals with eye cloudy [5, 7]: 2
number of animals with eye discharge [5, 7]: 2
number of animals with hypoactivity [5, 7]: 5
number of animals with sunken eye [5, 7]: 1
number of animals with swollen eye [5, 7]: 2
number of mice with eye opacity [5, 7]: one
number of mice with labored breathing [5, 7]: one
number of mice with lethargy [5, 7]: one
number of mice with swollen head [5, 7]: one
body weight gain on Days 5 to 9 [5, 6]: did not gain body weights
median survival time [5]: 11 days
number of animals survived until scheduled sacrifice (Day 30) [5]: 3
number of mice found dead [5]: one
number of mice moribund sacrificed [5]: 7
survival of animals through 30 days post exposure [5]: increased survival

NCCCNCCSP(=O)(O)O [Amifostine, amifostine]
efficacy as a radioprotector ([1]; administered orally): lacks efficacy

CC(C)(S)C1CNCCN1 (centres unmarked) [Compound 2Pip-2PrSH, 2-(piperazin-2-yl)propane-2-thiol]
toxicity at the highest tested dose (mice): did not produce any toxicity
survival compared to vehicle (Group 13) by Chi-square test [5]: not statistically significantly different
survival compared to vehicle (Group 13) by Log-rank (Mantel-Cox) test [5]: statistically significantly higher
Survival [5]: 0%
number of animals with cold to touch skin [5, 7]: 4
number of animals with eye discharge [5, 7]: one
number of animals with hypoactivity [5, 7]: 5
number of animals with swollen eye [5, 7]: one
number of mice with lethargy [5, 7]: one
number of mice with swollen head [5, 7]: one
body weight gain on Days 5 to 9 [5, 6]: did not gain body weights
median survival time [5]: 10 days
number of animals survived until scheduled sacrifice (Day 30) [5]: no animals survived
number of mice found dead [5]: six
number of mice moribund sacrificed [5]: Five
